# Assay results from patent US9868746B2, “Substituted 5-aminothieno[2,3-C]pyridazine-6-carboxamide analogs as positive allosteric modulators of the muscarinic acetylcholine receptor M4” (Vanderbilt University, priority 2012, dated 2018).
# Biological target: T1, mAChR M4 (Homo sapiens, UniProt P08173)
# T1 construct: expressed in transfected cells; host or cells: CHO-K1 cells stably transfected with M4 cDNA and chimeric G-protein Gqi5
# T1 sequence (P08173 1-479): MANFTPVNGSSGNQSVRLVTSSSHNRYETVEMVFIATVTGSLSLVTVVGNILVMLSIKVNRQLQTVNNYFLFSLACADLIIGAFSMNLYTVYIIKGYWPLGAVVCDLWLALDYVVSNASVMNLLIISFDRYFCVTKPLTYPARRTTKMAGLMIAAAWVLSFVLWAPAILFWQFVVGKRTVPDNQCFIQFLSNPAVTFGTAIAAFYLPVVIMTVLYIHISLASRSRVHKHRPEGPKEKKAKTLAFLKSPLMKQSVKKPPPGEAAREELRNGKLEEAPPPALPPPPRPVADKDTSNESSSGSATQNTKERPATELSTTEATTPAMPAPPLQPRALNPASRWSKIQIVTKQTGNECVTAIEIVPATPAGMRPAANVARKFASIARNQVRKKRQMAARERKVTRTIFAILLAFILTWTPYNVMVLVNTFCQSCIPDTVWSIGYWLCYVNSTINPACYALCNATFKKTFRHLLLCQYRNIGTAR
# Assay: mAChR M4 cell-based functional assay (calcium mobilization, potentiation of EC20 acetylcholine response)
# Conditions: for EC50: mAChR M4 cell-based functional assay, >10,000 estimated for low potency compounds without plateau, read-out: EC50
Emax at 30 µM (% ACh maximum at 30 μM) [%],EC50 [nM],Compound,Emax (%)* (% ACh maximum at 30 μM) [%]
65,65,Cc1nnc2sc(C(=O)NCc3ccc(S(=O)(=O)N(C)C)cc3)c(N)c2c1C [Example B450],–
73,390,Cc1nnc2sc(C(=O)NC3CCN(C(=O)C4CC4c4ccccc4)C3)c(N)c2c1C (centres unmarked) [Example B247],–
42,2200,Cc1nnc2sc(C(=O)N3CC(c4ccccc4)(N(C)C)C3)c(N)c2c1C [Example B322],–
53,> 10000,Cc1nnc2sc(C(=O)N3CCC(NC(=O)c4ccccn4)C3)c(N)c2c1C (centres unmarked) [Example B240],–
59,1400,Cc1nnc2sc(C(=O)NCc3ccc(F)cn3)c(N)c2c1C [Example B509],–
64,230,Cc1nnc2sc(C(=O)NCc3ccc(-c4ccccc4)cc3)c(N)c2c1C [Example B472],–
59,53,Cc1nnc2sc(C(=O)NC3CN(C(=O)N(C)c4ccccc4)C3)c(N)c2c1C [Example B423],–
58,2100,Cc1nnc2sc(C(=O)NC3CN(c4nccs4)C3)c(N)c2c1C [Example B430],–
44,820,Cc1nnc2sc(C(=O)N3CC4CN(C(=O)CC5CCCCC5)CC4C3)c(N)c2c1C (centres unmarked) [Example B386],–
43,4300,COC1(CCC2OCCCO2)CN(C(=O)c2sc3nnc(C)c(C)c3c2N)C1 [Example B298],–
67,520,CC(=O)N1CC(NC(=O)c2sc3nnc(C)c(C)c3c2N)C1 [Example B134],–
72,460,Cc1c(CN2CCOCC2)nnc2sc(C(=O)NCc3ccc(S(=O)(=O)C(F)(F)F)cc3)c(N)c12 [Example B324],–
72,210,Cc1nnc2sc(C(=O)NCc3ccc(-c4ccc(F)nc4F)cc3)c(N)c2c1C [Example B495],–
74,28,Cc1nnc2sc(C(=O)NC3CN(c4nc5ccccc5o4)C3)c(N)c2c1C [Example B425],–
55,16,Cc1nnc2sc(C(=O)NC3CN(C(=O)Oc4cccc(Cl)c4)C3)c(N)c2c1C [Example B359],–
61,10,Cc1nnc2sc(C(=O)NC3CN(C(=O)Oc4cc(F)cc(F)c4)C3)c(N)c2c1C [Example B370],–
59,> 10000,Nc1c(C(=O)NCc2cccc(F)c2)sc2nnccc12 [Example B21],–
63,11,Cc1nnc2sc(C(=O)NCc3ccc(-c4cccnc4)cc3)c(N)c2c1C [Example B464],–
43,1100,COC1(C2CCCCC2)CN(C(=O)c2sc3nnc(C)c(C)c3c2N)C1 [Example B304],–
63,52,COc1ccc(C(=O)N2CC(NC(=O)c3sc4nnc(C)c(C)c4c3N)C2)cc1 [Example B400],–
68,180,Cc1nnc2sc(C(=O)NC3CCN(c4cccc(Cl)c4)C3)c(N)c2c1C (centres unmarked) [Example B268],–

Emax at 30 µM (% ACh maximum at 30 μM) [%],EC50 [nM],Compound,Emax (%)* (% ACh maximum at 30 μM) [%]
65,1400,Cc1nnc2sc(C(=O)N3CCC(NC(=O)C4CC4c4ccccc4)C3)c(N)c2c1C (centres unmarked) [Example B254],–
66,17,COCOc1ccc(CNC(=O)c2sc3nnc(C)c(C)c3c2N)cc1F [Example B162],–
66,10,Cc1nnc2sc(C(=O)NCc3ccc(S(=O)(=O)C(C)(F)F)cc3)c(N)c2c1C [Example B118],–
66,580,Cc1nnc2sc(C(=O)NCc3ccc(-c4ccsc4)cc3)c(N)c2c1C [Example B502],–
60,240,"Cc1nnc2sc(C(=O)N[C@@H]3C[C@H]3c3ccc(S(C)(=O)=O)cc3)c(N)c2c1C (single isomer, unassigned) [Example B111]",–
47,5000,Cc1nnc2sc(C(=O)NCCc3ccccn3)c(N)c2c1C [Example B94],–
32,> 10000,CCCOC(=O)NC(CCl)CNC(=O)c1sc2nnc(C)c(C)c2c1N (centres unmarked) [Example B165],–
76,11,Cc1ccccc1OC(=O)N1CC(NC(=O)c2sc3nnc(C)c(C)c3c2N)C1 [Example B361],–
76,42,Cc1nnc2sc(C(=O)NCc3ccc4c(c3)CCO4)c(N)c2c1C [Example B27],–
37,790,Nc1c(C(=O)NCC2CC2)sc2nnc3c(c12)CCCC3 [Example B54],–
62,> 10000,Cc1nnc2sc(C(=O)N3C[C@@H]4C[C@@H]3CN4C(=O)Oc3ccccc3)c(N)c2c1C [Example B270],–
43,180,Cc1nnc2sc(C(=O)N3CC(N=[N+]=[N-])(c4ccccc4)C3)c(N)c2c1C [Example B311],–
80,110,Cc1nnc2sc(C(=O)NC3CN(C(=O)CCc4ccccc4)C3)c(N)c2c1C [Example B129],–
58,16,Cc1nnc2sc(C(=O)NC3CN(C(=O)Oc4ccc(Cl)cc4)C3)c(N)c2c1C [Example B355],–
52,> 10000,CCCCCC(=O)NC1CN(C(=O)c2sc3nnc(C)c(C)c3c2N)C1 [Example B175],–
74,240,Cc1nnc2sc(C(=O)NCc3ccc(-c4cccc5cccnc45)cc3)c(N)c2c1C [Example B453],–
46,> 10000,Cc1nnc2sc(C(=O)N3CC(F)(CCC4OCCCO4)C3)c(N)c2c1C [Example B291],–
65,> 10000,Cc1nnc2sc(C(=O)NCc3ccc(=O)n(C)c3)c(N)c2c1C [Example B444],–
85,110,CCCCCC(=O)N1CC(NC(=O)c2sc3nnc(C)c(C)c3c2N)C1 [Example B152],–
78,120,Cc1nnc2sc(C(=O)NC3CC3c3ccc(S(C)(=O)=O)cc3)c(N)c2c1C (centres unmarked) [Example B109],–
31,460,Cc1cncc(NC(=O)c2sc3nnc(C)c(C)c3c2N)c1 [Example B71],–

Emax at 30 µM (% ACh maximum at 30 μM) [%],EC50 [nM],Compound,Emax (%)* (% ACh maximum at 30 μM) [%]
53,> 10000,Nc1c(C(=O)NCc2ccccc2)sc2nnccc12 [Example B19],–
42,850,Cc1nnc2sc(C(=O)N3CC(F)(c4cccnc4)C3)c(N)c2c1C [Example B308],–
52,2500,Cc1nnc2sc(C(=O)NCCNS(=O)(=O)c3ccccc3)c(N)c2c1C [Example B360],–
66,250,Cc1nnc2sc(C(=O)NCc3ccc(-c4ccc5nccnc5c4)cc3)c(N)c2c1C [Example B496],–
31,> 10000,Cc1nnc2sc(C(=O)N3CCCn4nccc43)c(N)c2c1C [Example B445],–
68,30,Cc1nnc2sc(C(=O)NCc3ccc(OC(F)(F)F)cc3)c(N)c2c1C [Example B181],–
58,> 10000,CCCOC(=O)NC1CCN(C(=O)c2sc3nnc(C)c(C)c3c2N)C1 (centres unmarked) [Example B210],–
60,> 10000,Nc1c(C(=O)NCc2cccc(F)c2F)sc2nnccc12 [Example B18],–
35,> 10000,COc1ccc(C2CC2N(C)C(=O)c2sc3nnc(C)c(C)c3c2N)cc1 (centres unmarked) [Example B79],–
29,1700,Cc1nnc2sc(C(=O)Nc3ccccn3)c(N)c2c1C [Example B36],–
68,550,Cc1nnc2sc(C(=O)NC3CCN(S(=O)(=O)c4ccccc4)C3)c(N)c2c1C (centres unmarked) [Example B229],–
97,260,Cc1nnc2sc(C(=O)NC3CC3)c(N)c2c1C [Example B8],–
61,25,Cc1nnc2sc(C(=O)NC3CN(C(=O)Oc4ccc(C(F)(F)F)cc4)C3)c(N)c2c1C [Example B356],–
84,1200,Cc1nnc2sc(C(=O)NC3CCN(C(=O)C4CCC4)C3)c(N)c2c1C (centres unmarked) [Example B239],–
82,460,Cc1nnc2sc(C(=O)NCc3ccc(-c4cc(C)c5[nH]ncc5c4)cc3)c(N)c2c1C [Example B474],–
71,390,Cc1nnc2sc(C(=O)NC3CCN(S(=O)(=O)c4cccc(F)c4)C3)c(N)c2c1C (centres unmarked) [Example B253],–
71,110,Cc1nnc2sc(C(=O)NC3CN(C(=O)c4cccc(F)c4)C3)c(N)c2c1C [Example B403],–
92,840,Cc1nnc2sc(C(=O)NC3CN(C(=O)C(C)(C)C)C3)c(N)c2c1C [Example B121],–
72,360,Cc1nnc2sc(C(=O)NC3CCN(C(=O)Cc4ccccc4)C3)c(N)c2c1C (centres unmarked) [Example B235],–
68,82,Cc1nnc2sc(C(=O)NCc3ccc(CN4CCSCC4)cc3)c(N)c2c1C [Example B493],–

Compound,Emax at 30 µM (% ACh maximum at 30 μM) [%],EC50 [nM],Emax (%)* (% ACh maximum at 30 μM) [%]
COc1ccc(C2CC2NC(=O)c2sc3nnc4c(c3c2N)CCCC4)cc1 (centres unmarked) [Example B55],48,47,–
Cc1nnc2sc(C(=O)NCCNC(=O)Oc3ccccc3)c(N)c2c1C [Example B374],–,> 10000,33
